Assay [1] deals with gray mold fungi (Botrytis cinerea). As to the kind of experiment: Test Example B: tomato gray mold, spray test on potted tomato plants. Particulars: in Solanum lycopersicum, read-out: control value.
Text: Control value=100{1−(n/3)}
Test plants (tomato variety: Oogata Fukuju) were cultivated until three to five first leaves (true leaves) appeared after the sowing of seeds.
Assay [2] has as its system cucumber anthracnose fungi (Colletotrichum orbiculare). Briefly: Test Example H: cucumber anthracnose, spray test on potted cucumber plants. The settings on record: in Cucumis sativus, read-out: control value.
For assay [3], the system named is cabbage alternaria sooty spot fungi (Alternaia brassicicola). As to the kind of experiment: Test Example C: cabbage alternaria sooty spot, spray test on potted cabbage plants. Particulars: in Brassica oleracea, read-out: control value.
Text: Control value=100{1−(n/3)}
Test plants (cabbage variety: Shikidori) were cultivated until the cotyledons extended after the sowing of seeds.

A value given as a limit tells only on which side of the number the result lay.

For `CCn1c(-c2c(F)cccc2F)c(N2CCOCC2)cc(Cl)c1=O` [compound 426, 3-chloro-6-(2,6-difluorophenyl)-1-ethyl-5-morpholinopyridin-2(1H)-one], the pest or weed control at 250 ppm in assay [1], in assay [2] and in assay [3] was above 50% each time.

For `CCn1c(-c2ccc(F)cc2Cl)c(N2CCCCC2)cc(Cl)c1=O` [Compound 44, 3-chloro-6-(2-chloro-4-fluorophenyl)-1-ethyl-5-(piperidin-1-yl)pyridin-2(1H)-one], the pest or weed control at 250 ppm in assay [1], in assay [2] and in assay [3] was above 50% throughout.

Consider `CCn1c(-c2c(F)cccc2F)c(NC(=O)OC(C)(C)C)cc(Cl)c1=O` [Compound 1, tert-butyl (5-chloro-2-(2,6-difluorophenyl)-1-ethyl-6-oxo-1,6-dihydropyridin-3-yl)carbamate], for which the pest or weed control at 250 ppm in assay [3] was above 50%.

`CCn1c(-c2ccc(F)cc2Cl)c(NC(=O)OC(C)(C)C)cc(Cl)c1=O` [Compound 27, tert-butyl (5-chloro-2-(2-chloro-4-fluorophenyl)-1-ethyl-6-oxo-1,6-dihydropyridin-3-yl)carbamate]: the pest or weed control at 250 ppm in assay [1] is above 50%.

Regarding `CCn1c(-c2c(F)cccc2F)c(N(C)C(=O)OC(C)(C)C)cc(Cl)c1=O` [Compound 2, tert-butyl (5-chloro-2-(2,6-difluorophenyl)-1-ethyl-6-oxo-1,6-dihydropyridin-3-yl)(methyl)carbamate], the pest or weed control at 250 ppm in assay [3] was above 50%.

Turning to `CCN(C(=O)OC(C)(C)C)c1cc(Cl)c(=O)n(CC)c1-c1ccc(F)cc1` [Compound 17, tert-butyl (5-chloro-1-ethyl-2-(4-fluorophenyl)-6-oxo-1,6-dihydropyridin-3-yl)(ethyl)carbamate], the pest or weed control at 250 ppm in assay [2] was above 50%.

`CCNc1cc(Cl)c(=O)n(CC)c1-c1ccc(F)cc1` [Compound 20, 3-chloro-1-ethyl-5-(ethylamino)-6-(4-fluorophenyl)pyridin-2(1H)-one]: in assay [2], the pest or weed control at 250 ppm was above 50%.

As to `CCN(C)c1cc(Cl)c(=O)n(CC)c1-c1c(F)cccc1F` [Compound 5, 3-chloro-6-(2,6-difluorophenyl)-1-ethyl-5-(ethyl(methyl)-amino)pyridin-2(1H)-one], the pest or weed control at 250 ppm in assay [1], in assay [2] and in assay [3] was above 50% each time.

As for `CCn1c(-c2ccc(F)cc2Cl)c(N)cc(Cl)c1=O` [Compound 32, 5-amino-3-chloro-6-(2-chloro-4-fluorophenyl)-1-ethylpyridin-2(1H)-one], the pest or weed control at 250 ppm in assay [2] is above 50%.

`CCn1c(-c2c(F)cccc2F)c(NC)cc(Cl)c1=O` [Compound 3, 3-chloro-6-(2,6-difluorophenyl)-1-ethyl-5-(methylamino)-pyridin-2(1H)-one]: the pest or weed control at 250 ppm in assay [2] and in assay [3] was above 50% in each case.

For `CCn1c(-c2ccc(F)cc2Cl)c(N2CCC(C)CC2)cc(Cl)c1=O` [compound 365, 3-chloro-6-(2-chloro-4-fluorophenyl)-1-ethyl-5-(4-methyl-piperidin-1-yl)pyridin-2(1H)-one], the pest or weed control at 250 ppm in assay [1], in assay [2] and in assay [3] was above 50% throughout.

On to `CCn1c(-c2c(F)cccc2F)c(N(C)C)cc(Cl)c1=O` [Compound 4, 3-chloro-6-(2,6-difluorophenyl)-5-(dimethylamino)-1-ethyl-pyridin-2(1H)-one], for which the pest or weed control at 250 ppm in assay [1], in assay [2] and in assay [3] was above 50% throughout.

For `CCn1c(-c2c(F)cccc2F)c(Nc2ccccc2)cc(Cl)c1=O` [compound 317, 3-chloro-6-(2,6-difluorophenyl)-1-ethyl-5-(phenylamino)pyridin-2(1H)-one], the pest or weed control at 250 ppm in assay [1], in assay [2] and in assay [3] was above 50% each time.

`CCn1c(-c2c(F)cccc2F)c(N=CN2CCCC2)cc(Cl)c1=O` [Compound 8, 3-chloro-6-(2,6-difluorophenyl)-1-ethyl-5-((pyrrolidin-1-yl-methylene)amino)pyridin-2(1H)-one]: the pest or weed control at 250 ppm in assay [1], in assay [2] and in assay [3] was above 50% in each case.

Take `CCn1c(-c2c(F)cccc2F)c(N)cc(Cl)c1=O` [Compound 59, 5-amino-3-chloro-6-(2,6-difluorophenyl)-1-ethylpyridin-2(1H)-one]: the pest or weed control at 250 ppm in assay [2] was above 50%.
